Assay results reported in PMC11162475, “Rule-based omics mining reveals antimicrobial macrocyclic peptides against drug-resistant clinical isolates” (Nature Communications, 2024).
≈ marks a conversion by molar mass, not a printed value.

Key:
S. aureus ATCC 25923 = experiment: Time-dependent killing assay; assay type: cell-based, Staphylococcus aureus; conditions: for log(CFU/mL) / CFU/mL: time-killing assay
Description: (§1) Time-dependent killing assay
(§2) An overnight culture of S. aureus ATCC 25923 cells was diluted at 1:10,000 in MHB medium and incubated at 37 ℃, 200 rpm for 2 hours to reach the early exponential.
(§3) Then, massatide A or vancomycin was added to the culture at the concentration of 10×MIC. Bacteria were still cultivated at 37 ℃, 200 rpm. Culture with no antibiotics was used as a negative control. 10 μL aliquots were removed at intervals, centrifuged, and resuspended in 1 ml PBS. Serially diluted (10-fold) suspensions were plated on MHB agar and incubated at 37 ℃ overnight for counting of colony-forming units.
Experiments were performed in triplicate. […]

[1] = system: TEV protease, Endoproteinase AspN, Endoproteinase GluC; conditions: many other proteases (TEV protease 37 °C, Endoproteinase AspN and GluC 30 °C), 32 μg/mL, 100:1 (w:w), 4 h, 8 h, 12 h, UPLC-LRMS
Description: (§4) Protease stability of massatide A
(§5) We selected TEV protease, Endoproteinase AspN, Endoproteinase GluC, trypsin, and chymotrypsin to evaluate the stability of massatide A. The protease digestion assay was conducted as follows: (i) Stock solution of massatide A (3.2 mg/mL in DMSO) was diluted in H2O with final concentration of 32 μg/mL, (ii) each protease was added with 100:1 (w:w) ratio and incubated under corresponding temperature, i.e., 37 °C for TEV protease, trypsin, and chymotrypsin and 30 °C for Endoproteinase AspN and […]
(§6) Endoproteinase GluC. […]

trypsin = conditions: 32 μg/mL in H2O, protease 100:1 (w:w), 37 °C, 4 h, 8 h and 12 h, UPLC-LRMS
Description: as §4, §5, §6

[2] = Thermal stability of massatide A
Description: Thermal stability of massatide A
A solution of Massatide A (3.2 mg/mL) was prepared in 1.5 mL Eppendorf tube. These
tubes were then incubated at 50 °C and 70 °C in a dry bath for 72 hours. After incubation,
1 μ L samples were taken and diluted with water for UPLC -LRMS analysis. […]

[3] = Mammalian cytotoxicity, CCK-8 assay; assay type: cell-based; conditions: human
Description: Bioactivity assay of the crude extract
as §4
Thermal stability of massatide A […]
and 1% penicillin -streptomycin. […]
and CO 2-controllable incubator with 5% CO 2. All the cell experiments were performed […]
Cell viability was determined by the CCK -8 assay. HeLa and Hek -293T cells were […]
µg/ml. At the end of the fixed incubation period (24 h), cells were washed with PBS to remove excess compound. We added 100 µl fresh medium and 10 µl CCK-8 reagent.
After 2 h incubation at 37°C, absorbance at 450 nm was recorded using a microplate reader. All experiments were performed in triplicate (n=3 independent experiments).
Growth kinetics of S. aureus
Massatide A or B was prepared in a 96-well plate at the concentration of 8×MIC, 4×MIC, 2×MIC, 1×MIC and 0.5×MIC , respectively. The MHB medium with no compound was used as a control. Then, the overnight culture of S. aureus ATCC 25923 cells was added to the medium at 1:1,000. The plate was incubated with shaking in SpectraMax iD3 (MOLECULAR DEVICES) at 30 ℃. OD600 was measured every 30 min for 36 hours. To analyze the lysis, 1mL of S. aureus ATCC 25923 culture (OD600 1.0) was treated with massatide A or vancomycin (10×MIC) for 24h. An untreated sample was used as a negative control.
as §1, §2, §3
Experiments were performed in triplicate.
Sequential culturing of S. aureus ATCC 25923 was performed in the presence of a subinhibitory concentration of massatide A to observe whether the resistance developed. […]

ICR mice = experiment: Mouse acute toxicity test; assay type: in vivo
Description: Massatide A was dissolved in saline to the required concentration for the experiments. Six-week-old specific pathogen-free male ICR mice weighing 18–20 g were randomly divided into 4 groups (4 per group) and administered in a single intraperitoneal injection. Group 1 animals received 0.9% saline only, while groups 2–4 were given massatide A at 10, 30, and 50 mg/kg, respectively. The animals were continuously observed for general behavioral changes for 5 days and survival rate was recorded.

[4] = 300 μl of water added to 0.9 mg solid; visual, not quantitative

Structure (SMILES): C/C=C1\NC(=O)C(N(C)C)C(C)SC[C@@H](C(=O)N[C@H](CC)C(=O)N[C@H](C(=O)N[C@@H](C)C(=O)N[C@H](C)C(=O)N[C@@H](Cc2ccccc2)C(=O)N[C@@H](C)C(=O)NC2C(=O)NCC(=O)N[C@@H](Cc3ccc(O)cc3)C(=O)N[C@@H](Cc3ccccc3)C(=O)N[C@H](C)C(=O)N/C=C\SC2C)C(C)C)NC(=O)[C@@H]2CCCN2C(=O)[C@H](C(C)C)NC1=O (stereo partly shown) [Massatide A (1), massatide A]
- time-dependent killing, mode of killing (S. aureus ATCC 25923; S. aureus, early exponential phase, 10×MIC, 37 °C, c.f.u. counting, triplicate): bactericidal
- log(CFU/mL) (S. aureus ATCC 25923; time 0 h, log of mean of 3 replicates): 6.553 log(CFU/mL)
- CFU/mL (S. aureus ATCC 25923; time 0 h, mean of 3 replicates): 3576667 CFU/mL
- CFU/mL (S. aureus ATCC 25923; time 0 h, replicate 1): 2840000 CFU/mL
- log(CFU/mL) (S. aureus ATCC 25923; time 0 h, replicate 1): 6.453 log(CFU/mL)
- CFU/mL (S. aureus ATCC 25923; time 0 h, replicate 2): 4020000 CFU/mL
- log(CFU/mL) (S. aureus ATCC 25923; time 0 h, replicate 2): 6.604 log(CFU/mL)
- CFU/mL (S. aureus ATCC 25923; time 0 h, replicate 3): 3870000 CFU/mL
- log(CFU/mL) (S. aureus ATCC 25923; time 0 h, replicate 3): 6.588 log(CFU/mL)
- log(CFU/mL) (S. aureus ATCC 25923; time 1 h, log of mean of 3 replicates): 4.699 log(CFU/mL)
- CFU/mL (S. aureus ATCC 25923; time 1 h, mean of 3 replicates): 50000 CFU/mL
- CFU/mL (S. aureus ATCC 25923; time 1 h, replicate 1): 70000 CFU/mL
- log(CFU/mL) (S. aureus ATCC 25923; time 1 h, replicate 1): 4.8451 log(CFU/mL)
- CFU/mL (S. aureus ATCC 25923; time 1 h, replicate 2): 50000 CFU/mL
- log(CFU/mL) (S. aureus ATCC 25923; time 1 h, replicate 2): 4.699 log(CFU/mL)
- CFU/mL (S. aureus ATCC 25923; time 1 h, replicate 3): 30000 CFU/mL
- log(CFU/mL) (S. aureus ATCC 25923; time 1 h, replicate 3): 4.477 log(CFU/mL)
- log(CFU/mL) (S. aureus ATCC 25923; time 3 h, log of mean of 3 replicates): 4.176 log(CFU/mL)
- CFU/mL (S. aureus ATCC 25923; time 3 h, mean of 3 replicates): 15000 CFU/mL
- CFU/mL (S. aureus ATCC 25923; time 3 h, replicate 1): 10000 CFU/mL
- log(CFU/mL) (S. aureus ATCC 25923; time 3 h, replicate 1): 4 log(CFU/mL)
- CFU/mL (S. aureus ATCC 25923; time 3 h, replicate 2): 20000 CFU/mL
- log(CFU/mL) (S. aureus ATCC 25923; time 3 h, replicate 2): 4.301 log(CFU/mL)
- CFU/mL (S. aureus ATCC 25923; time 3 h, replicate 3): 15000 CFU/mL
- log(CFU/mL) (S. aureus ATCC 25923; time 3 h, replicate 3): 4.176 log(CFU/mL)
- log(CFU/mL) (S. aureus ATCC 25923; time 7 h, log of mean of 3 replicates): 3.921 log(CFU/mL)
- CFU/mL (S. aureus ATCC 25923; time 7 h, mean of 3 replicates): 8333.33 CFU/mL
- CFU/mL (S. aureus ATCC 25923; time 7 h, replicate 1): 5000 CFU/mL
- log(CFU/mL) (S. aureus ATCC 25923; time 7 h, replicate 1): 3.699 log(CFU/mL)
- CFU/mL (S. aureus ATCC 25923; time 7 h, replicate 2): 10000 CFU/mL
- log(CFU/mL) (S. aureus ATCC 25923; time 7 h, replicate 2): 4 log(CFU/mL)
- CFU/mL (S. aureus ATCC 25923; time 7 h, replicate 3): 10000 CFU/mL
- log(CFU/mL) (S. aureus ATCC 25923; time 7 h, replicate 3): 4 log(CFU/mL)
- log(CFU/mL) (S. aureus ATCC 25923; time 26 h, log of mean of 3 replicates): 2.049 log(CFU/mL)
- CFU/mL (S. aureus ATCC 25923; time 26 h, mean of 3 replicates): 112 CFU/mL
- CFU/mL (S. aureus ATCC 25923; time 26 h, replicate 1): 70 CFU/mL
- log(CFU/mL) (S. aureus ATCC 25923; time 26 h, replicate 1): 1.8451 log(CFU/mL)
- CFU/mL (S. aureus ATCC 25923; time 26 h, replicate 2): 120 CFU/mL
- log(CFU/mL) (S. aureus ATCC 25923; time 26 h, replicate 2): 2.079 log(CFU/mL)
- CFU/mL (S. aureus ATCC 25923; time 26 h, replicate 3): 146 CFU/mL
- log(CFU/mL) (S. aureus ATCC 25923; time 26 h, replicate 3): 2.164 log(CFU/mL)
- protease stability [1]: resistant
- protease stability (trypsin): resistant
- stability under high temperatures ([2]; 3.2 mg/mL, 50 °C and 70 °C, dry bath, 72 hours, UPLC-LRMS): highly stable
- changes in retention time or m/z after incubation ([2]; 72 h incubation under 70 ℃, 3.2 mg/mL, UPLC-LRMS): No changes
- changes in bioactivity after incubation ([2]; time-course activity analysis, incubation at 50 ℃ and 70 ℃ up to 72 h): no obvious changes
- IC50 at 24 h [3]: 136 µg/mL (≈ 83.4 µM)
- number of new dead mouse (ICR mice; 10 mg/kg i.p., day 1, 4 mice per group): 0
- number of new dead mouse (ICR mice; 10 mg/kg i.p., day 2, 4 mice per group): 0
- number of new dead mouse (ICR mice; 10 mg/kg i.p., day 3, 4 mice per group): 0
- number of new dead mouse (ICR mice; 10 mg/kg i.p., day 5, 4 mice per group): 0
- number of new dead mouse (ICR mice; 30 mg/kg i.p., day 1, 4 mice per group): 0
- number of new dead mouse (ICR mice; 30 mg/kg i.p., day 2, 4 mice per group): 0
- number of new dead mouse (ICR mice; 30 mg/kg i.p., day 3, 4 mice per group): 0
- number of new dead mouse (ICR mice; 30 mg/kg i.p., day 5, 4 mice per group): 0
- number of new dead mouse (ICR mice; 50 mg/kg i.p., day 1, 4 mice per group): 0
- number of new dead mouse (ICR mice; 50 mg/kg i.p., day 2, 4 mice per group): 0
- number of new dead mouse (ICR mice; 50 mg/kg i.p., day 3, 4 mice per group): 0
- number of new dead mouse (ICR mice; 50 mg/kg i.p., day 5, 4 mice per group): 0
- survival / signs of acute toxicity (ICR mice; male ICR mice, single intraperitoneal injection, 10-50 mg/kg, 5 days, 4 per group): all treated mice survived without any signs of acute toxicity
- water solubility (observation) [4]: not fully dissolved
